The text below walks through data of paper PMC11019550, “Potent Inhibition of E. coli DXP Synthase by a gem-Diaryl Bisubstrate Analog” (ACS Infectious Diseases, 2024).

In test [1] the target is T1, WT EcDXPS (Escherichia coli, UniProt P77488).
T1 construct: made in house
Kind of test: Time-dependent inhibition, reaction progress curves on WT EcDXPS. The test is classed as biochemical. The settings on record: 8 at 400 or 800 nM, 10 at 1 or 100 μM. Here is the method: To determine if 8 is also a slow-onset inhibitor of DXPS, reaction progress was monitored upon simultaneous addition of substrates (pyruvate and D-GAP) in the presence or absence of inhibitor. In the absence of inhibitor, the reaction progress curve is linear. […] To assess the importance of the carboxyl group of 8, we evaluated descarboxy analog 10 in the same manner.
EcDXPS (100 nM) and IspC (2 μM) were preincubated in enzyme reaction buffer (100 mM HEPES pH 8, 2 mM MgCl2, 5 mM NaCl, 1 mM ThDP, and 200 μM NADPH) with 250 μM D-GAP for 10 min at 25 °C. The reaction was initiated by the addition of pyruvate (1 mM) and inhibitor (400 nM and 800 nM 8; 1 μM and 100 μM 10). The reaction mixture was incubated at 25 °C, and the absorbance of NADPH at 340 nm was monitored. The change in the absorbance of NADPH over time was used to calculate [DXP] (μM) produced over time. Experiments were performed in triplicate.

Test [2] addresses T2, EcDXPS (Escherichia coli, UniProt P77488).
T2 construct: made in house
Kind of test: DXPS-IspC coupled assay, apparent Ki on wildtype EcDXPS. The test is classed as biochemical. As for the experimental part:
To determine inhibitor potency, we used the DXPS-DXP reductoisomerae (DXPS-IspC) coupled assay to measure the activity of recombinant purified EcDXPS[24],[25],[31],[44],[50] in the presence of inhibitors. Reactions were initiated by the addition of substrates following a short preincubation of the inhibitor with enzymes, and initial velocities were determined by monitoring reduced nicotinamide adenine dinucleotide phosphate (NADPH) absorbance at 340 nm. Apparent Ki values were determined by fitting initial velocity data to the Morrison equation,[64],[65] which accounts for the tight-binding nature (Ki^app/[E]total < 10)[66] of inhibitors included in this study and allows for rigorous comparison of inhibitor potencies. […] Inhibitor activities were rationalized based on the predictions made from molecular docking of the corresponding PLThDP adducts into the DXPS active site.
All compounds in this study were evaluated as DXPS inhibitors using the DXPS-IspC coupled assay as previously reported.[24] […] The DXPS reaction was initiated by the addition of substrates (50 μM pyruvate and 500 μM D-GAP). The initial rate of depletion of NADPH was monitored at 340 nm and was used to calculate the initial rate of DXP formation in the presence or absence of inhibitor. Initial rates of DXP formation were plotted as a function of [inhibitor], and Ki^app was determined by fitting the data to the Morrison equation (eq 1)[64],[65] in GraphPad Prism. This approach was deemed appropriate as the concentration of free inhibitor cannot be assumed to remain constant for most of these analogs in which Ki^app values approach the concentration of DXPS.[88],[89] Error is reported as standard deviation from three replicates. Active enzyme concentration ([E]T) was determined following Copeland’s method using 8 (Figure S2B).[88]
The coupled assay was initiated by adding 20 μL of a 10× substrate stock to the preincubated E + I mixture to give a final volume of 200 μL. The final concentration of D-GAP was held constant at 500 μM, and [pyruvate] was added to final concentrations between 0 and 250 μM. The initial rate of NADPH depletion in the IspC-coupled reaction was monitored at 340 nm and was used to calculate the initial rate of DXP formation in the presence or absence of inhibitor. Initial rates were plotted as a function of [pyruvate]. […] Model discrimination analysis employing the Akaike information criterion was performed as well as Lineweaver–Burk analysis to determine the mixed model as the best fit. In all cases, error bars represent the standard deviation from three replicates.

Test [3] concerns the target T3, R478A EcDXPS (Escherichia coli, UniProt P77488, R478A).
T3 construct: made in house
Kind of test: Circular dichroism titration (PLThDP formation, apparent KD) on R478A EcDXPS. The test is classed as binding. As for the experimental part: (§1) CD titrations of 8 and 10 onto WT, R99A, and R478A EcDXPS variants were conducted at 25 °C under aerobic conditions in 1.5 mL solutions containing 30 μM EcDXPS in 50 mM HEPES pH 8, 100 mM NaCl, 1 mM MgCl2, and 0.2 mM ThDP. Scans were obtained from 280 to 400 nm with a 0.5 s averaging time and 1 nm step following a titration of inhibitor (8: 0.25–30 μM on WT, 0.5–30 μM on R99A and R478A; 10 2.5–30 μM on WT, R99A, and R478A), with a 5 min preincubation of inhibitor with DXPS prior to scanning. […] The CD signals at 294 nm determined from the difference spectra obtained by subtracting the signal of E-ThDP at 294 nm were plotted as a function of [inhibitor] and fit to (1) the quadratic equation described in eq 2 (8 on WT DXPS), where E is the concentration of DXPS taking into account stoichiometric binding and CDmax is the maximal CD signal, or (2) a one-site specific binding curve (all other experiments) using GraphPad Prism Version 9 to calculate an apparent KD. Experiments were conducted in triplicate and the standard error was calculated. [drawing 2] 2
(§2) At the conclusion of the titration described above, the CD signal at 313 nm (previously characterized for LThDP) was recorded. Pyruvate (1 mM) was then added to the mixture, and a CD scan of the resulting solution was conducted as described above, to detect shifts in the CD spectrum that may correlate to LThDP formation. Experiments were conducted in triplicate.
(In general: Circular dichroism is widely used to follow secondary structure.)

For test [4], the target named is T4, R99A EcDXPS (Escherichia coli, UniProt P77488, R99A).
T4 construct: made in house
Kind of test: Circular dichroism titration (PLThDP formation, apparent KD) on R99A EcDXPS. The test is classed as binding. Here is the method: as §1, §2

The target of test [5] is T1, WT EcDXPS. Kind of test: Circular dichroism titration (PLThDP formation, apparent KD) on WT EcDXPS. The test is classed as binding.
Source text: The X-ray structure obtained from cocrystallization of DrDXPS with 1 (Figure 2) indicates the formation of the PLThDP adduct by reaction of the acetylphosphonate mimic of pyruvate with the C2 carbanion of ThDP. We reasoned that 8 should also engage the pyruvate binding site and react with ThDP to form a PLThDP adduct. Circular dichroism (CD) is a powerful tool that can be used to detect LThDP and LThDP-like adducts on thiamin-dependent enzymes,[56],[67]−[75] including DXPS.[31],[36],[43],[44],[49]−[52],[76] DXPS bound to ThDP (E-ThDP) is characterized by a CD λmin at 320 nm, indicative of the 4′-aminopyrimidine (AP) tautomer of ThDP (Figure 8A). Upon addition of pyruvate to E-ThDP, a new positive signal emerges at 313 nm, indicating the formation of LThDP in its 1′,4′-iminopyrimidine (IP) form. Similarly, upon addition of AP-based inhibitors to E-ThDP, the E-PLThDP adduct is formed, characterized by an increasing, broad CD signal.[69],[77],[78] Determination of apparent KD of PLThDP by plotting the CD signal corresponding to PLThDP versus [MAP] has been used as a proxy for PLThDP affinity.[77],[78] To confirm that 8 reacts with ThDP to form PLThDP in the DXPS active site, the change in CD signal upon addition of 8 (0.25–30 μM) to EcDXPS (30 μM) was measured. […] Plotting the CD signal at 294 nm versus affords a curve that approaches the limiting asymptotes defined by infinitely tight binding (Figure 8C),[79],[80] which is expected for this nanomolar inhibitor under the conditions of high [DXPS] required for this method. Since in this case [DXPS] ≫ KD^app, an accurate determination of KD^app is not possible, and data were fit to a quadratic equation to give an estimated upper limit for the value of KD^app (≤0.04 ± 0.01 μM). Addition of 10 to DXPS also results in an increased, broad CD signal (Figure S7A), indicating PLThDP formation. […]
as §1, with “ThDP.” for “ThDP. Scans were obtained from 280 to 400 nm with a 0.5 s averaging time and 1 nm step following a titration of inhibitor (8: 0.25–30 μM on WT, 0.5–30 μM on R99A and R478A; 10 2.5–30 μM on WT, R99A, and R478A), with a 5 min preincubation of inhibitor with DXPS prior to scanning.”, “[drawing 2] 2” left out
At the conclusion of the titration described above, the CD signal at 313 nm (previously characterized for LThDP) was recorded. […]

Turning to `CC(=O)P(=O)(O)OCCc1cn(C(Cc2ccccc2)Cc2ccccc2)nn1` [Compound 10], the “time dependence of inhibition (progress curve for DXP formation)” value in test [1] is given as “linear”. Moreover, the Ki in test [2] (read-out: Ki^app) was 11 ± 1 µM. In test [2] (relative to compound 8), the “fold increase in Ki^app relative to 8” value is given as approximately 3800 fold. In addition, the Kd in test [3] was 6 ± 1 µM; in test [4] it was 14.5 ± 0.7 µM; in test [5] it was 9 ± 1 µM. Also, in test [5] (WT EcDXPS 30 μM, inhibitor 30 μM), the “change in PLThDP CD signal upon addition of 1 mM pyruvate” value was “CD signal shift and an increase in amplitude”.
